In patent US4571403A, “Antianginal medicated compound” (Institut Organicheskoi Khimii Imeni N.D. Zelinskogo …, priority 1984, dated 1986):

How the values were obtained:
[1] = tested on: vessels of heart, kidney and limbs; assay: resistogram of vessels of heart, kidney and limbs; assay type: in vivo
Excerpt: To find out the participance of the vascular factor in redistribution of regional blood flow, resistogram of vessels of heart, kidney and limbs has been recorded. […] The effect of the preparation on the heart activity and basic characteristics of hemodynamics has been also studied.

blood flow in aorta = assay: volumetric blood flow in the ascending aortic arch, anesthetized cats and dogs; assay type: in vivo; settings: 200-500 mg/kg intravenously
Excerpt: In experiments on cats and dogs under the general anesthesia conditions the volumetric flow rate of blood flow in the ascending part of the aortic arch has been recorded by the electromagnetic method using an electromagnetic blood flow meter and vessel sensors of appropriate size. On the basis of analysis of the phase curve of the blood flow, the main characteristics of heart activity and hemodynamics have been calculated. […] The averaged data of analysis of phase curves of the blood flow in cat's aorta under general anesthesia conditions (8 tests) are given in the Table hereinbelow.

[2] = tested on: patients suffering from ischemic heart disease; assay: clinical test in patients with ischemic heart disease; assay type: in vivo, human patients
Procedure: There were studied 84 patients aged 29 to 77 (46 men and 38 women) suffering from ischemic heart disease.
The patients with ischemic heart disease were classified by stages: stage 1-18 persons, stage 2-40 persons, stage […] (according to L. I. Fogelson, 1972). In 46 patients there was the attendant hypertonic disease of the second stage.
The remoteness of the disease was varied from 6 months to 22 years. The preparation was administered perorally in doses of 0.6-0.9 g 3-4 times a day. The daily dose is 1.8-3.6 g. The treatment course was 7 to 60 days; after a 5-7 days' interval the treatment was resumed depending on its efficiency so that the total course duration was up to 6 months. The effectiveness of the treatment was evaluated by the dynamics of complaints, clinic chart, objective data of pulse and arterial pressure, electrocardiographic and biochemical characteristics.

[3] = patients with attendant hypertonic disease

Which tension of vessels ([1]; heart, kidney and limbs) does the source give for `CN1C(=O)N(C)C2C1N(C)C(=O)N2C` (stereo not drawn) [the preparation, 2,4,6,8-tetramethyl-2,4,6,8-tetraazobicyclo-/3,3,0/-octanedione-3,7] here?
The tension of vessels was “monodirectionally lowers tension of all vessels”.

And the “resistance of coronary vessels versus peripheral vessels” value ([1]; in vivo)?
Its value is “lowered to a greater extent than that of peripheral vessels”.

What about the “duration of increased blood flow in aorta” value (blood flow in aorta) of the same molecule?
Its value is 30 to 40 min.

What about the “increase of blood flow in aorta” value (blood flow in aorta) of the same molecule?
Its value is 50-70%.

And the tachycardia (blood flow in aorta)?
The tachycardia was “uncertainly pronounced tachycardia”.

What about the potassium in plasma ([2]; after treatment, before 3.82±0.16) of the same molecule?
The potassium in plasma was 3.45±0.08 mequiv/l.

What about the number of erythrocytes ([2]; after treatment, before 4.6±0.3) of the same molecule?
The number of erythrocytes was 5.3±0.3 mln in mm^3.

What about the “content of total protein” value ([2]; after treatment, before 7.73±0.1%) of the same molecule?
Its value is 8.65±0.25%.

What about the content of lymphocytes ([2]; after treatment, before 26.9±1.2%) of the same molecule?
The content of lymphocytes was 31.0±2.8%.

And the potassium in erythrocytes ([2]; after treatment, before 65.7±5.7)?
Its potassium in erythrocytes is 80.2±5.2 mequiv/l.

And the hemoglobin ([2]; after treatment, before 82.7±2.6%)?
Its hemoglobin is 86.3±3.2%.

And the cholesterol ([2]; after treatment, before 294.0±16.4%)?
Its cholesterol is 245±15.0 mg %.

What about the leucocytes ([2]; after treatment, before 5,520±499) of the same molecule?
Its leucocytes is 6,080±221 in mm^3.

What about the content of prothrombin ([2]; during the treatment course) of the same molecule?
The content of prothrombin was “not changed”.

And the “content of sodium in erythrocytes and plasma” value ([2]; human, in vivo)?
Its value is “not substantially changed”.

And the contraindications ([2]; human, in vivo)?
The contraindications was “No contraindications against the administration of the preparation have been revealed”.

What about the “patients with good therapeutic effect” value ([2]; human, in vivo) of the same molecule?
Its value is 77 % of the patients.

And the “remaining fractions of proteinogram” value ([2]; human, in vivo)?
Its value is “insignificant opposite-sign variations”.

And the side effects ([2]; human, in vivo)?
The side effects was “Side effects are absent”.

And the “day at which amelioration of the condition was observed” value [2, 3]?
Its value is 2 to 5 days.

And the pulse [2, 3]?
Its pulse is “pulse normalization”.

What about the minimal arterial pressure ([2]; patients with attendant hypertonic disease, after treatment, before 102.2±1.2) of the same molecule?
The minimal arterial pressure was 89.7±4.0 mm Hg.

What about the maximum arterial pressure ([2]; patients with attendant hypertonic disease, after treatment, before 180.8±3.9) of the same molecule?
The maximum arterial pressure was 161.4±3.8 mm Hg.

What about the electrogram ([2]; perorally 1.8-3.6 g daily) of the same molecule?
Its electrogram is “rhythm normalization”.

And the “frequency and intensity of stenocardia attacks” value ([2]; perorally 1.8-3.6 g daily)?
The value was “reduced”.

What about the metabolic processes ([2]; perorally 1.8-3.6 g daily) of the same molecule?
The metabolic processes was “amelioration of metabolic processes”.

And the gamaglobulins ([2]; proteinogram, after treatment, before 19.87±1.83%)?
The gamaglobulins was 22.54±2.31%.
